Data published in ChEMBL document CHEMBL3608269, “Triazole-Linked Glycolipids Enhance the Susceptibility of MRSA to β-Lactam Antibiotics” (ACS Med Chem Lett, 2015).
In brackets after ≈: the same amount, converted by molar mass. Activity calls are given as the source filed them. No cut-off for these calls is given here.

Columns and labels:
[1] = test system: Staphylococcus aureus; experiment: Antibacterial activity against methicillin-resistant Staphylococcus aureus ATCC 43300 after 20 to 24 hrs by CLSI method; type: functional
[2] = test system: Staphylococcus aureus; experiment: Antibacterial activity against methicillin-resistant Staphylococcus aureus ATCC 43300 assessed as growth inhibition at 2 ug/ml after 24 hrs by Epsilometer test; type: functional, organism-based
[3] = test system: Staphylococcus aureus; experiment: Antibacterial activity against methicillin-resistant Staphylococcus aureus ATCC 43300 assessed as growth inhibition at 2 ug/ml measured up to 24 hrs by time kill assay; type: functional, organism-based
[4] = test system: Staphylococcus aureus; experiment: Downregulation of mecA mRNA expression in methicillin-resistant Staphylococcus aureus ATCC 43300 at 2 ug/ml after 4 hrs by RT-PCR analysis; type: functional, organism-based
[5] = test system: Staphylococcus aureus; experiment: Antibacterial activity against methicillin-resistant Staphylococcus aureus ATCC 43300 assessed as change in bacterial surface at 2 ug/ml after 4 hrs by scanning electron microscopic analysis; type: functional, organism-based
[6] = test system: Staphylococcus aureus; experiment: Antibacterial activity against methicillin-resistant Staphylococcus aureus R15 clinical isolate after 20 to 24 hrs by CLSI method; type: functional
[7] = test system: Staphylococcus aureus; experiment: Antibacterial activity against methicillin-resistant Staphylococcus aureus R16 clinical isolate after 20 to 24 hrs by CLSI method; type: functional
[8] = test system: Staphylococcus aureus; experiment: Antibacterial activity against methicillin-resistant Staphylococcus aureus R36 clinical isolate after 20 to 24 hrs by CLSI method; type: functional
[9] = test system: Staphylococcus aureus; experiment: Antibacterial activity against methicillin-resistant Staphylococcus aureus R49 clinical isolate after 20 to 24 hrs by CLSI method; type: functional
[10] = test system: Staphylococcus aureus; experiment: Antibacterial activity against methicillin-resistant Staphylococcus aureus R50 clinical isolate after 20 to 24 hrs by CLSI method; type: functional
[11] = test system: Staphylococcus aureus; experiment: Antibacterial activity against methicillin-resistant Staphylococcus aureus R53 clinical isolate after 20 to 24 hrs by CLSI method; type: functional
[12] = test system: Staphylococcus aureus; experiment: Antibacterial activity against methicillin-resistant Staphylococcus aureus R302 clinical isolate after 20 to 24 hrs by CLSI method; type: functional
[13] = test system: Staphylococcus aureus; experiment: Antibacterial activity against methicillin-resistant Staphylococcus aureus R304 clinical isolate after 20 to 24 hrs by CLSI method; type: functional
[14] = test system: Staphylococcus aureus; experiment: Antibacterial activity against methicillin-resistant Staphylococcus aureus R306 clinical isolate after 20 to 24 hrs by CLSI method; type: functional
[15] = test system: Staphylococcus aureus; experiment: Antibacterial activity against methicillin-resistant Staphylococcus aureus R308 clinical isolate after 20 to 24 hrs by CLSI method; type: functional
[16] = test system: Staphylococcus aureus; experiment: Antibacterial activity against methicillin-resistant Staphylococcus aureus R313 clinical isolate after 20 to 24 hrs by CLSI method; type: functional
[17] = test system: Staphylococcus aureus; experiment: Antibacterial activity against methicillin-resistant Staphylococcus aureus R314 clinical isolate after 20 to 24 hrs by CLSI method; type: functional
[18] = test system: Staphylococcus aureus; experiment: Potentiation of oxacillin-mediated antibacterial activity against methicillin-resistant Staphylococcus aureus ATCC 43300 at 32 ug/ml after 20 to 24 hrs by CLSI method; type: functional
[19] = test system: Staphylococcus aureus; experiment: Potentiation of oxacillin-mediated antibacterial activity against methicillin-resistant Staphylococcus aureus ATCC 43300 assessed as decrease in oxacillin MIC at 32 ug/ml after 20 to 24 hrs by CLSI method relative to control; type: functional

SMILES	MIC [1] [mg/L]	MIC [18] [mg/L]	other results
Cc1onc(-c2ccccc2)c1C(=O)N[C@@H]1C(=O)N2[C@@H]1SC(C)(C)[C@@H]2C(=O)O [OXACILLIN]	64 (≈ 159 µM)		growth inhibition (GI) [2]: inactive; growth inhibition (GI) [3]: inactive; Activity [4]: inactive; Activity [5]: inactive; MIC [6]: 256 mg/L (≈ 638 µM); MIC [7]: ≥ 256 mg/L; MIC [8]: 128 mg/L (≈ 319 µM); MIC [9]: 8 mg/L (≈ 19.9 µM); MIC [10]: 8 mg/L (≈ 19.9 µM); MIC [11]: 8 mg/L (≈ 19.9 µM); MIC [12]: 512 mg/L (≈ 1280 µM); MIC [13]: 512 mg/L (≈ 1280 µM); MIC [14]: 512 mg/L (≈ 1280 µM); MIC [15]: 1020 mg/L (≈ 2550 µM); MIC [16]: 16 mg/L (≈ 39.9 µM); MIC [17]: 512 mg/L (≈ 1280 µM)
CCCCCCCCCCCCCCO[C@@H]1O[C@H](CO)[C@@H](O)[C@H](O)[C@H]1O	> 256	> 32	
CCCCCCCCCCCCCCCCCCO [CETOSTEARYL ALCOHOL]	> 256	> 32	
CCCCCCO [1-HEXANOL]	> 256	> 32	
CCCCCCCCCCO [DECANOL]	> 256	> 32	
CCCCCCCCCCCCCCO [MYRISTYL ALCOHOL]	> 256	> 32	
CCCCCCCCCCCCOCc1cn([C@@H]2O[C@H](CO)[C@@H](O)[C@H](O)[C@@H]2O)nn1	256 (≈ 596 µM)	4	fold change (FC) [19]: 64
CCCCCCCCCCCCCCOCc1cn([C@@H]2O[C@H](CO)[C@@H](O)[C@H](O)[C@H]2O)nn1	256 (≈ 559 µM)	4	fold change (FC) [19]: 64
CCCCCCCCCCCCCCOCc1cn([C@@H]2O[C@H](CO)[C@H](O)[C@H](O)[C@H]2O)nn1	256 (≈ 559 µM)	8	fold change (FC) [19]: 32
CCCCCCCCCCCCO [DODECANOL]	> 256	> 32	
CCCCCCCCCCCCCCCCO[C@@H]1O[C@H](CO)[C@@H](O)[C@H](O)[C@H]1O	> 256	> 32	
CCCCCCCCCCCCCCCCO [CETYL ALCOHOL]	> 256	> 32	
CCCCCCCCO [OCTANOL]	> 256	> 32	
CCCCCCCCCCCCCCCCOCc1cn([C@@H]2O[C@H](CO)[C@H](O)[C@H](O)[C@H]2O)nn1	256 (≈ 527 µM)	16	fold change (FC) [19]: 16
